In brackets after ≈: the same amount, converted by molar mass.
Experiments:
[1] = system: T. mentagrophytes TM-2; assay: MIC, agar incorporation method; type: cell-based; conditions: Trichophyton mentagrophytes, TM2, 32° C., 48-72 hours, read-out: Minimal Inhibitory Concentration
Description: (§1) The compounds of the present invention were tested for their ability to inhibit the growth of microorganisms by in vitro tests. Generally the in vitro tests involve growing representative microorganisms under conditions favorable to such growth and measuring the effectiveness of one or more compounds in inhibiting or destroying the growth of the microorganisms. The microorganisms used include representative bacteria, fungi and yeasts.
(§2) A representative selection of the test microorganisms were cultured in a nutrient broth, such as, for example, Eugon, commercially available from Difco Laboratories, Detroit, Michigan. Bacteria and Candida species were cultured for 24 hours at 32°-37° C. and fungi were cultured for approximately one week at 32° C. Inocula were prepared by suspending the growth or spores from a slant culture in sufficient sterile normal (0.9 percent) saline or Eugon broth, to yield cell or spore concentrations of 1,000,000 cells per milliliter. Anaerobic bacteria were cultured for 48-72 hours at 32°-37° C. in a thioglycollate containing medium, for example, Fluid Thioglycollate medium or NIH thioglycollate broth, commercially available from Difco Laboratories.
(§3) The compounds of the present invention were tested for activity against bacteria, yeasts and fungi by the agar incorporation method described below. MA 1347, 3-(dimethylaminomethyl)flavanone (disclosed in U.S. Pat. No. 3,753,985) was used as a comparative standard along with controls for each solvent system used.
(§4) A series of agar plates containing two-fold dilutions of each compound to be tested, ranging in concentration from 100 to 3.1 mcg/ml of agar medium was prepared. Aliquots of each concentration (100, 50, 25, 12.5, 6.2, and 3.1) prepared in N,N-dimethylformamide or 50 percent aqueous DMF were added to liquid Eugon agar at 48° C. (one part test solution to 100 parts agar). In some cases, tests with further dilutions to 0.125 mcg/ml were conducted. The agar medium, containing the 3-methylene flavanone or chromanone compound to be tested, was then dispensed into petri dishes and allowed to solidify. The solidified plates were kept overnight at room temperatures to dry the surface of the agar.
(§5) The agar plates were then inoculated with a drop of the standardized cell or spore suspension. Inoculated plates were incubated at 32° C. The inhibition end-point or minimum inhibitory concentration (MIC) shown in Table D represent the lowest concentration of test compound which inhibited the growth of the microorganism. Visual determination of growth inhibition was used. Bacteria and yeast end-points were determined after 24 hours incubation; molds, dermatophytes and anaerobes after 48-72 hours incubation. MIC values shown as ranges represent the extremes found in repeat assays. Virtually all such values were written plus or minus one dilution, the accepted variation of a two-fold dilution assay.

[2] = system: T. mentagrophytes CDC; assay: MIC, agar incorporation method; type: cell-based; conditions: Trichophyton mentagrophytes, 32° C., 48-72 hours, read-out: Minimal Inhibitory Concentration
Description: as §1, §2, §3, §4, §5

[3] = system: C. guillermondii VM 42; assay: MIC, agar incorporation method; type: cell-based; conditions: 32° C., 24 hours; read-out: Minimal Inhibitory Concentration
Description: as §1, §2, §3, §4, §5

[4] = system: Pseudomonas aeruginosa ATCC 14502; assay: MIC, agar incorporation method; type: cell-based; conditions: ATCC14502, 32° C., 24 hours, read-out: Minimal Inhibitory Concentration
Description: as §1, §2, §3, §4, §5

[5] = system: Escherichia coli ATCC 8739; assay: MIC, agar incorporation method; type: cell-based; conditions: ATCC8739, 32° C., 24 hours, read-out: Minimal Inhibitory Concentration
Description: as §1, §2, §3, §4, §5

[6] = system: Aspergillus niger ATCC 16404; assay: MIC, agar incorporation method; type: cell-based; conditions: ATCC16404, 32° C., 48-72 hours, read-out: Minimal Inhibitory Concentration
Description: as §1, §2, §3, §4, §5

[7] = system: Candida albicans ATCC 10231; assay: MIC, agar incorporation method; type: cell-based; conditions: ATCC10231, C. albicans ATCC 10231, 32° C., 24 hours, read-out: Minimal Inhibitory Concentration
Description: as §1, §2, §3, §4, §5

[8] = system: Microsporum gypseum ATCC 14683; assay: MIC, agar incorporation method; type: cell-based; conditions: Nannizzia gypsea, ATCC14683, 32° C., 48-72 hours; read-out: Minimal Inhibitory Concentration
Description: as §1, §2, §3, §4, §5

[9] = system: Trichophyton mentagrophytes ATCC 4807; assay: MIC, agar incorporation method; type: cell-based; conditions: ATCC4807, 32° C., 48-72 hours, read-out: Minimal Inhibitory Concentration
Description: as §1, §2, §3, §4, §5

[10] = system: Streptococcus faecalis ATCC 10541; assay: MIC, agar incorporation method; type: cell-based; conditions: Enterococcus faecalis, ATCC10541; 32° C., 24 hours; read-out: Minimal Inhibitory Concentration
Description: as §1, §2, §3, §4, §5

[11] = system: T. tonsurans ATCC 10217; assay: MIC, agar incorporation method; type: cell-based; conditions: Trichophyton tonsurans, ATCC10217; 32° C., 48-72 hours; read-out: Minimal Inhibitory Concentration
Description: as §1, §2, §3, §4, §5

[12] = system: Staphylococcus aureus ATCC 6538; assay: MIC, agar incorporation method; type: cell-based; conditions: Staphylococcus aureus, ATCC6538; S. aureus ATCC 6538; 32° C., 24 hours; read-out: Minimal Inhibitory Concentration
Description: as §1, §2, §3, §4, §5

[13] = system: C. krusei VM 29B; assay: MIC, agar incorporation method; type: cell-based; conditions: Pichia kudriavzevii, VM29B; 32° C., 24 hours; read-out: Minimal Inhibitory Concentration
Description: as §1, §2, §3, §4, §5

[14] = system: C. albicans NRRL Y-477; assay: MIC, agar incorporation method; type: cell-based; conditions: Candida albicans, NRRLY477, 32° C., 24 hours, read-out: Minimal Inhibitory Concentration
Description: as §1, §2, §3, §4, §5

[15] = system: A. fumigatus NRRL 163; assay: MIC, agar incorporation method; type: cell-based; conditions: Aspergillus fumigatus, NRRL163, NRRL 163; 32° C., 48-72 hours; read-out: Minimal Inhibitory Concentration
Description: as §1, §2, §3, §4, §5

[16] = system: C. tropicalis NRRL Y1410; assay: MIC, agar incorporation method; type: cell-based; conditions: Candida tropicalis, NRRLY1410; 32° C., 24 hours; read-out: Minimal Inhibitory Concentration
Description: as §1, §2, §3, §4, §5

[17] = system: Sarcina subflava ATCC 7468; assay: MIC, agar incorporation method; type: cell-based; conditions: ATCC7468, 32° C., 24 hours, read-out: Minimal Inhibitory Concentration
Description: as §1, §2, §3, §4, §5

[18] = system: Propionobacterium acnes ATCC 6919; assay: MIC, agar incorporation method, anaerobic; type: cell-based; conditions: 48 hours at 35° C., GasPak Anaerobic Jar, read-out: Minimal Inhibitory Concentration
Description: as §1, §2, §3, §4, §5
(§6) *Anaerobic: 48 hours incubation at 35° C. GasPak Anaerobic Jar

[19] = system: Bacteriodides fragilis ATCC 8482; assay: MIC, agar incorporation method, anaerobic; type: cell-based; conditions: 48 hours at 35° C., GasPak Anaerobic Jar, read-out: Minimal Inhibitory Concentration
Description: as §1, §2, §3, §4, §5, §6

[20] = system: S. aureus NRRL B2747; assay: MIC, agar incorporation method, anaerobic; type: cell-based; conditions: Staphylococcus aureus, NRRLB2747, 48 hours at 35° C., GasPak Anaerobic Jar, read-out: Minimal Inhibitory Concentration
Description: as §1, §2, §3, §4, §5, §6

[21] = system: Clostridium sporogenes ATCC 11437; assay: MIC, agar incorporation method, anaerobic; type: cell-based; conditions: ATCC11437, 48 hours at 35° C., GasPak Anaerobic Jar, read-out: Minimal Inhibitory Concentration
Description: as §1, §2, §3, §4, §5, §6

[22] = system: S. aureus NRRL B2747; assay: MIC, agar incorporation method; type: cell-based, Staphylococcus aureus; conditions: Staphylococcus aureus, NRRLB2747, 32° C., 24 hours, read-out: Minimal Inhibitory Concentration
Description: as §1, §2, §3, §4, §5

[23] = system: Proteus vulgaris NRRL B123; assay: MIC, agar incorporation method; type: cell-based; conditions: NRRLB123, 32° C., 24 hours, read-out: Minimal Inhibitory Concentration
Description: as §1, §2, §3, §4, §5

[24] = system: T. rubrum ATCC 10218; assay: MIC, agar incorporation method; type: cell-based; conditions: Trichophyton rubrum, ATCC10218; 32° C., 48-72 hours; read-out: Minimal Inhibitory Concentration
Description: as §1, §2, §3, §4, §5

[25] = system: A. fumigatus NRRL 165; assay: MIC, agar incorporation method; type: cell-based; conditions: Aspergillus fumigatus, NRRL165, 32° C., 48-72 hours, read-out: Minimal Inhibitory Concentration
Description: as §1, §2, §3, §4, §5

[26] = system: Clostridium acetobutylicum ATCC 824; assay: MIC, agar incorporation method, anaerobic; type: cell-based; conditions: ATCC824, 48 h, 48 hours at 35° C., GasPak Anaerobic Jar, read-out: Minimal Inhibitory Concentration
Description: as §1, §2, §3, §4, §5, §6

Row | MIC [6] | MIC [17] | Compound | MIC [1] | MIC [2] | MIC [3] | MIC [4] | MIC [5] | MIC [7] | MIC [8] | MIC [9] | MIC [10] | MIC [11] | MIC [12] | MIC [13] | MIC [14] | MIC [15] | MIC [16] | MIC [18] | MIC [19] | MIC [22] | other results
1 | 25 µg/mL (≈ 92.3 µM) | 6.2 µg/mL (≈ 22.9 µM) | C=C1C(=O)c2ccccc2OC1c1ccc(Cl)cc1 (centres unmarked) [Ex. 3, 4'-chloro-3-methylene flavanone] | 6.2 µg/mL (≈ 22.9 µM) | 6.2 µg/mL (≈ 22.9 µM) | 25 µg/mL (≈ 92.3 µM) | > 100 µg/mL | > 100 µg/mL | 12.5 µg/mL (≈ 46.2 µM) | 6.2 µg/mL (≈ 22.9 µM) | 6.2 µg/mL (≈ 22.9 µM) | 25 µg/mL (≈ 92.3 µM) | – | ≤ 3.1 µg/mL | 12.5 µg/mL (≈ 46.2 µM) | 12.5 µg/mL (≈ 46.2 µM) | 6.2 µg/mL (≈ 22.9 µM) | 25 µg/mL (≈ 92.3 µM) | ≤ 100 µg/mL | – | 3.1 µg/mL (≈ 11.5 µM) | MIC [23]: > 100 µg/mL; MIC [24]: ≤ 3.1 µg/mL; MIC [25]: 50 µg/mL (≈ 185 µM); MIC [26]: ≤ 100 µg/mL
2 | 50 µg/mL (≈ 178 µM) | 12.5 µg/mL (≈ 44.4 µM) | C=C1C(=O)c2ccccc2OC1c1ccc([N+](=O)[O-])cc1 (centres unmarked) [Ex. 10, 4'-nitro-3-methylene flavanone] | 6.2 µg/mL (≈ 22 µM) | 6.2 µg/mL (≈ 22 µM) | 50 µg/mL (≈ 178 µM) | > 100 µg/mL | > 100 µg/mL | 25 µg/mL (≈ 88.9 µM) | 6.2 µg/mL (≈ 22 µM) | 6.2 µg/mL (≈ 22 µM) | 50 µg/mL (≈ 178 µM) | – | ≤ 3.1 µg/mL | 25 µg/mL (≈ 88.9 µM) | 25 µg/mL (≈ 88.9 µM) | 12.5 µg/mL (≈ 44.4 µM) | 50 µg/mL (≈ 178 µM) | ≤ 100 µg/mL | – | 6.2 µg/mL (≈ 22 µM) | MIC [23]: > 100 µg/mL; MIC [24]: ≤ 3.1 µg/mL; MIC [25]: 100 µg/mL (≈ 356 µM); MIC [26]: ≤ 100 µg/mL
3 | – | – | C=C1C(=O)c2ccccc2OC1c1ccccc1 (centres unmarked) [Ex. 1, 3-methylene flavanone] | 12.5 µg/mL (≈ 52.9 µM) | 12.5 µg/mL (≈ 52.9 µM) | 100 µg/mL (≈ 423 µM) | > 100 µg/mL | > 100 µg/mL | 50 µg/mL (≈ 212 µM) | 6.2 to 12.5 µg/mL (≈ 26.2 to 52.9 µM) | 12.5 µg/mL (≈ 52.9 µM) | 100 µg/mL (≈ 423 µM) | 6.2 µg/mL (≈ 26.2 µM) | 6.2 µg/mL (≈ 26.2 µM) | 50 µg/mL (≈ 212 µM) | 50 µg/mL (≈ 212 µM) | 6.2 µg/mL (≈ 26.2 µM) | 100 µg/mL (≈ 423 µM) | 12.5 µg/mL (≈ 52.9 µM) | 1.56 µg/mL (≈ 6.6 µM) | 12.5 µg/mL (≈ 52.9 µM) | MIC [20]: 25 µg/mL (≈ 106 µM); MIC [21]: 12.5 µg/mL (≈ 52.9 µM)

Row | Compound | MIC [6] | MIC [17] | MIC [1] | MIC [2] | MIC [3] | MIC [4] | MIC [5] | MIC [7] | MIC [8] | MIC [9] | MIC [10] | MIC [11] | MIC [12] | MIC [13] | MIC [14] | MIC [15] | MIC [16] | MIC [18] | MIC [19] | MIC [22] | other results
4 | C=C1C(=O)c2ccccc2OC1(c1ccccc1)c1cccs1 (centres unmarked) [Ex. 21, 3-Methylene-2-(2-thienyl) flavanone] | > 100 µg/mL | 1.56 µg/mL (≈ 4.9 µM) | 12.5 µg/mL (≈ 39.3 µM) | 12.5 µg/mL (≈ 39.3 µM) | > 100 µg/mL | > 100 µg/mL | > 100 µg/mL | > 100 µg/mL | 6.2 µg/mL (≈ 19.5 µM) | 12.5 µg/mL (≈ 39.3 µM) | 1 µg/mL (≈ 3.14 µM) | 6.2 µg/mL (≈ 19.5 µM) | 0.5 µg/mL (≈ 1.57 µM) | > 100 µg/mL | > 100 µg/mL | 100 µg/mL (≈ 314 µM) | > 100 µg/mL | 1 µg/mL (≈ 3.14 µM) | 0.25 µg/mL (≈ 0.785 µM) | 0.5 µg/mL (≈ 1.57 µM) | MIC [20]: 1.56 µg/mL (≈ 4.9 µM); MIC [21]: 0.5 µg/mL (≈ 1.57 µM)

Source: US4241069A, “3-Methylene flavanones and 3-methylene chromanones” (Miles Laboratories, Inc., priority 1979, dated 1980)
